Assay results: US20130023645A1 (priority 2006, published 2013)
“And” between values parts separate entries of the source, which are not always exact repeats. Identical values can stand only once.

Molecular target: T1, neuronal-type nicotinic receptors (Bos taurus, UniProt Q07263+Q8SPU6)
T1 construct: monolayer cultures of bovine adrenal chromaffin cells; endogenous in cells; host or cells: bovine adrenal chromaffin cells (primary monolayer cultures)
Format: cell-based, bovine

T1 sequence (Q07263 22-495): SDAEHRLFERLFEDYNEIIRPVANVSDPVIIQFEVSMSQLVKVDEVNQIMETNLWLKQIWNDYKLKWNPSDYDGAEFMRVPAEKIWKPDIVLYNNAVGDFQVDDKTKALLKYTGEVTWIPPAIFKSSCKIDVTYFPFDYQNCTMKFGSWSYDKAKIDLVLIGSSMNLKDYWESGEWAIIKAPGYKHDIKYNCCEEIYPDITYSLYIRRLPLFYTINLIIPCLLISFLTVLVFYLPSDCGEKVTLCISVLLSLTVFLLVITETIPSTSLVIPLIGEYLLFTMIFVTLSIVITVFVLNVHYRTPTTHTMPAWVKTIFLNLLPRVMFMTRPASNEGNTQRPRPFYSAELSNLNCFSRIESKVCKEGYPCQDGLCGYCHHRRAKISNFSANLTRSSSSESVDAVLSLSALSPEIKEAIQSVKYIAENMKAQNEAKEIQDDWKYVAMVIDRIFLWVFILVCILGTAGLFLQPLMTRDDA
T1 sequence (Q8SPU6 20-496): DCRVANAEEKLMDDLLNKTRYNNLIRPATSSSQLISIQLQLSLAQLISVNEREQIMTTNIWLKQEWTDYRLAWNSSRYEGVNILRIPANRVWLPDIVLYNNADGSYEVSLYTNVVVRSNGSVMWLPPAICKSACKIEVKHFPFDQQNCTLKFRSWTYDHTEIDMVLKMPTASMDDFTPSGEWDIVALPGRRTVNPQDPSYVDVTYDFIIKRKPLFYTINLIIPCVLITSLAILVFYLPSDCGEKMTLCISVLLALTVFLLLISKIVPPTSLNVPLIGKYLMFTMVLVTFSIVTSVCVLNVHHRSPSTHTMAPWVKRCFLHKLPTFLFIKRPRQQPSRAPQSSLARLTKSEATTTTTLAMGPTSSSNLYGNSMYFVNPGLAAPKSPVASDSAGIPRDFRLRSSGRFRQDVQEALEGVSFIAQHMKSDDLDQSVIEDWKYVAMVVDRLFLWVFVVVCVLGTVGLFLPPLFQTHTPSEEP

CN1CCCC1c1cccnc1 (centres unmarked) [NICOTINE, nicotine, reference compound]
Adrenaline Release, mean: 4.46% | Adrenaline Release, single determinations (1st-4th): 4.31% and 4.52% and 4.48% | Noradrenaline Release, mean: 6.85% | Noradrenaline Release, single determinations (1st-4th): 6.62% and 6.89% and 6.99% | noradrenaline released, basal release (0.72%) subtracted: 6.13%
